In patent US12048783B2, “2,4-disubstituted pyridines as malodor counteracting ingredients” (FIRMENICH SA, priority 2017, dated 2024) one finds EC50 data, which are given here for 1 compound.

For orientation: EC50 means the midpoint of the concentration-response curve.

This assay addresses T1, OR4S2 (Homo sapiens, UniProt Q8NH73).
T1 construct: expressed in transfected cells
T1 sequence (Q8NH73 1-311): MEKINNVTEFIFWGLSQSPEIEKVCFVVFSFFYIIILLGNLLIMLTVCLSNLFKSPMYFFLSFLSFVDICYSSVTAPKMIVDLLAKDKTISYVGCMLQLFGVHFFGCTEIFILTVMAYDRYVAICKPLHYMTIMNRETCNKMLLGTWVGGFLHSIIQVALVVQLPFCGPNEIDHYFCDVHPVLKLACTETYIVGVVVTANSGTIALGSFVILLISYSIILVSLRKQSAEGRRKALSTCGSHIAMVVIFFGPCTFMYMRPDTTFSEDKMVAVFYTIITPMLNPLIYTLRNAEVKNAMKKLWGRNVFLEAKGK
Put plainly: Inhibition of malodor compound induced olfactory receptor activity in stable cell lines. It is filed as cell-based. Conditions: inhibition of OR4S2 activity in presence of a single activating concentration of DMTS.

Turning to `CCCCCc1cc(C)ccn1`, the EC50 was found to be 90.3 µM.
